The values below are quoted from earlier work in patent US12611397B1, “Pharmaceutical composition of darolutamide” (ORION CORPORATION, priority 2019, dated 2026).

Each structure is given as a SMILES string.

In the case of `CC(O)c1cc(C(=O)N[C@@H](C)Cn2ccc(-c3ccc(C#N)c(Cl)c3)n2)[nH]n1` (stereo partly drawn) [Darolutamide, N—((S)-1-(3-(3-chloro-4-cyanophenyl)-1H-pyrazol-1-yl)-propan-2-yl)-5-(1-hydroxyethyl)-1H-pyrazole-3-carboxamide], the Solubility in water result is “poorly soluble in water”.
